Results published in article PMC11558673, “Exploring LCST- and UCST-like Behavior of Branched Molecules Bearing Repeat Units of Elastin-like Peptides as Side Components” (Biomacromolecules, 2024).

How the values were obtained:
[1] = Turbidity measurement (LCST/UCST-like behavior, Tt); type: physicochemical; details: for Tt for the LCST-like behavior: Tt = temperature at half the maximum turbidity, mean ± standard error, at least three measurements; for Temperature-responsive behavior in turbidity measurement: heating to 90 °C and cooling to 5 °C at 1 °C/min, turbidity at 400 nm
Description: Temperature-responsive properties (LCST/UCST-like behavior and its reversibility) were investigated by using a JASCO V-660 spectral photometer (JASCO, Tokyo, Japan). Each peptide was dissolved in phosphate buffer containing NaCl (pH 7.4, 27.4 mM Na2HPO4, 17.8 mM NaH2PO4, 1 M NaCl). NaCl in this concentration is used as an additive to trigger an LCST-like behavior for the inverse transition cycling (a method to purify a protein exploiting the LCST-like behavior of ELPs).[9] The turbidity at 400 nm of each branched ELP solution was traced while increasing or decreasing the temperature at a rate of 0.5 °C/min, except for samples at 0.5 mM, which were traced at 1 °C/min for heating–cooling cycle measurements. For the samples at 0.5 mM, after heating to 90 °C or cooling to 5 °C, the samples were vortexed to eliminate any possible concentration gradients caused by peptide precipitation and kept at 90 or 5 °C for 30 min before starting the subsequent cooling or heating, respectively. The transition temperature (Tt) for LCST was defined as a temperature at which the turbidity of the solution reaches half the maximum value while increasing the temperature. Measurements were performed at least three times.

[2] = DLS measurement of particle size distribution; type: physicochemical; details: peptide 0.5 mM, filtered phosphate buffer pH 7.4 with 1 M NaCl
Description: The particle size distribution of branched ELPs was analyzed in filtered phosphate buffer (pH 7.4, 27.4 mM Na2HPO4, 17.8 mM NaH2PO4) containing 1 M NaCl using DLS with a Zetasizer Nano ZS (Malvern Instruments, Worcestershire, U.K.) DLS analysis was performed at temperatures ranging from 15 to 55 °C with 10 °C intervals for [α-E(F1)]n-F1 and [γ-E(F1)]n-F1 under conditions where the ELPs have Tt values around 30 °C for LCST-like behavior (n = 4, 2.5 mM; n = 5, 1 mM; n = 6, 0.5 mM). Additionally, a solution of [α-E(F1)]5-F1 at 0.5 mM was analyzed at 20, 60, and 90 °C. The measurement duration was selected automatically. The parameter data set “protein” (data set: refractive index, 1.450; absorption, 0.001) was used as the material parameter, and the parameter data set “water” (data set: refractive index, 1.330; viscosity, 0.8872) was chosen as the dispersant parameter. Attenuation was selected automatically.

[3] = CD measurement (aggregation observed in sample); type: physicochemical; details: 0.1 mg/mL in filtered phosphate buffer pH 7.4 without NaCl; 10 to 90 °C
Description: CD measurements were carried out using a J-725 spectropolarimeter (JASCO) for [α-E(F1)]5-F1 and [γ-E(F1)]5-F1 in a cuvette with a path length of 1.0 mm. Each peptide was dissolved in filtered phosphate buffer (pH 7.4, 27.4 mM Na2HPO4, and 17.8 mM NaH2PO4) at a concentration of 0.1 mg/mL. […] Spectra were obtained from 190 to 260 nm at temperatures ranging from 10 to 90 °C with 20 °C intervals. Each measurement was performed after 3 min of equilibration at the target temperature. After subtracting the background spectra, Savitzky–Golay filters were applied to smooth all spectra.

ThT fluorescence assay = type: physicochemical; details: peptide 1 mM; 50 μM ThT; phosphate buffer pH 7.4 with 1 M NaCl; excitation 446 nm, emission 483 nm
Description: A ThT fluorescence assay was conducted using an FP-8500 fluorescence spectrometer (JASCO Co.). The phosphate buffer solutions (pH 7.4, 27.4 mM Na2HPO4, 17.8 mM NaH2PO4) of [α-E(F1)]5-F1 (1 or 0.5 mM) containing 1 M NaCl and 50 μM ThT were prepared. The temperature change rates were the same as those in the turbidity measurements. Using an excitation wavelength of 446 nm, the ThT fluorescence intensities at 483 nm upon temperature changes or over time were recorded.

[4] = monomeric pentapeptide; cited from earlier work
Text: Short ELPs with a (VPGVG)n sequence ...

[5] = peptide 0.5 mM, turbidity at 400 nm on heating (1 °C/min for heating-cooling cycle measurements), phosphate buffer pH 7.4 with 1 M NaCl
[6] = peptide 1 mM, turbidity at 400 nm on heating 0.5 °C/min, phosphate buffer pH 7.4 with 1 M NaCl
[7] = peptide 2.5 mM, turbidity at 400 nm on heating 0.5 °C/min, phosphate buffer pH 7.4 with 1 M NaCl
[8] = peptide 1.5 mM, turbidity at 400 nm on heating 0.5 °C/min, phosphate buffer pH 7.4 with 1 M NaCl
[9] = peptide 4 mM, turbidity at 400 nm on heating 0.5 °C/min, phosphate buffer pH 7.4 (27.4 mM Na2HPO4, 17.8 mM NaH2PO4) with 1 M NaCl
[10] = peptide 0.5 mM, phosphate buffer pH 7.4 with 1 M NaCl

Compound | Tt for the LCST-like behavior [1, 5] [°C] | Tt for the LCST-like behavior [1, 6] [°C] | Tt for the LCST-like behavior [1, 7] [°C] | further results
CC(C)[C@H](NC(=O)CNC(=O)[C@@H]1CCCN1C(=O)[C@H](Cc1ccccc1)NC(=O)CC[C@H](NC(=O)CC[C@H](NC(=O)CC[C@H](NC(=O)CC[C@H](NC(=O)CC[C@H](NC(=O)CC[C@H](N)C(=O)N[C@@H](Cc1ccccc1)C(=O)N1CCC[C@H]1C(=O)NCC(=O)N[C@H](C(=O)NCC(N)=O)C(C)C)C(=O)N[C@@H](Cc1ccccc1)C(=O)N1CCC[C@H]1C(=O)NCC(=O)N[C@H](C(=O)NCC(N)=O)C(C)C)C(=O)N[C@@H](Cc1ccccc1)C(=O)N1CCC[C@H]1C(=O)NCC(=O)N[C@H](C(=O)NCC(N)=O)C(C)C)C(=O)N[C@@H](Cc1ccccc1)C(=O)N1CCC[C@H]1C(=O)NCC(=O)N[C@H](C(=O)NCC(N)=O)C(C)C)C(=O)N[C@@H](Cc1ccccc1)C(=O)N1CCC[C@H]1C(=O)NCC(=O)N[C@H](C(=O)NCC(N)=O)C(C)C)C(=O)N[C@@H](Cc1ccccc1)C(=O)N1CCC[C@H]1C(=O)NCC(=O)N[C@H](C(=O)NCC(N)=O)C(C)C)C(=O)NCC(N)=O [[γ-E(F1)]6-F1] | 34.56 ± 0.48 | 23.66 ± 0.06 | 8.63 ± 0.31 | –
CC(C)[C@H](NC(=O)CNC(=O)[C@@H]1CCCN1C(=O)[C@H](Cc1ccccc1)NC(=O)CC[C@H](NC(=O)[C@H](CCC(=O)N[C@@H](Cc1ccccc1)C(=O)N1CCC[C@H]1C(=O)NCC(=O)N[C@H](C(=O)NCC(N)=O)C(C)C)NC(=O)[C@@H](N)CCC(=O)N[C@@H](Cc1ccccc1)C(=O)N1CCC[C@H]1C(=O)NCC(=O)N[C@H](C(=O)NCC(N)=O)C(C)C)C(=O)N[C@@H](CCC(=O)N[C@@H](Cc1ccccc1)C(=O)N1CCC[C@H]1C(=O)NCC(=O)N[C@H](C(=O)NCC(N)=O)C(C)C)C(=O)N[C@@H](Cc1ccccc1)C(=O)N1CCC[C@H]1C(=O)NCC(=O)N[C@H](C(=O)NCC(N)=O)C(C)C)C(=O)NCC(N)=O [[α-E(F1)]4-F1] | – | – | 29.98 ± 1.82 | Tt for the LCST-like behavior [1, 8]: 47.04 ± 0.81 °C; Tt for the LCST-like behavior [1, 9]: 21.12 ± 1.68 °C
CC(C)[C@H](NC(=O)CNC(=O)[C@@H]1CCCN1C(=O)[C@H](Cc1ccccc1)NC(=O)CC[C@H](NC(=O)[C@H](CCC(=O)N[C@@H](Cc1ccccc1)C(=O)N1CCC[C@H]1C(=O)NCC(=O)N[C@H](C(=O)NCC(N)=O)C(C)C)NC(=O)[C@H](CCC(=O)N[C@@H](Cc1ccccc1)C(=O)N1CCC[C@H]1C(=O)NCC(=O)N[C@H](C(=O)NCC(N)=O)C(C)C)NC(=O)[C@@H](N)CCC(=O)N[C@@H](Cc1ccccc1)C(=O)N1CCC[C@H]1C(=O)NCC(=O)N[C@H](C(=O)NCC(N)=O)C(C)C)C(=O)N[C@@H](CCC(=O)N[C@@H](Cc1ccccc1)C(=O)N1CCC[C@H]1C(=O)NCC(=O)N[C@H](C(=O)NCC(N)=O)C(C)C)C(=O)N[C@@H](CCC(=O)N[C@@H](Cc1ccccc1)C(=O)N1CCC[C@H]1C(=O)NCC(=O)N[C@H](C(=O)NCC(N)=O)C(C)C)C(=O)N[C@@H](Cc1ccccc1)C(=O)N1CCC[C@H]1C(=O)NCC(=O)N[C@H](C(=O)NCC(N)=O)C(C)C)C(=O)NCC(N)=O [[α-E(F1)]6-F1] | 33.80 ± 0.38 | 19.76 ± 0.97 | 7.68 ± 0.80 | –
CC(C)[C@H](NC(=O)CNC(=O)[C@@H]1CCCN1C(=O)[C@H](Cc1ccccc1)NC(=O)CC[C@H](NC(=O)[C@H](CCC(=O)N[C@@H](Cc1ccccc1)C(=O)N1CCC[C@H]1C(=O)NCC(=O)N[C@H](C(=O)NCC(N)=O)C(C)C)NC(=O)[C@H](CCC(=O)N[C@@H](Cc1ccccc1)C(=O)N1CCC[C@H]1C(=O)NCC(=O)N[C@H](C(=O)NCC(N)=O)C(C)C)NC(=O)[C@@H](N)CCC(=O)N[C@@H](Cc1ccccc1)C(=O)N1CCC[C@H]1C(=O)NCC(=O)N[C@H](C(=O)NCC(N)=O)C(C)C)C(=O)N[C@@H](CCC(=O)N[C@@H](Cc1ccccc1)C(=O)N1CCC[C@H]1C(=O)NCC(=O)N[C@H](C(=O)NCC(N)=O)C(C)C)C(=O)N[C@@H](Cc1ccccc1)C(=O)N1CCC[C@H]1C(=O)NCC(=O)N[C@H](C(=O)NCC(N)=O)C(C)C)C(=O)NCC(N)=O [[α-E(F1)]5-F1] | 56.92 ± 1.28 | – | 13.86 ± 0.33 | Hydrodynamic diameter at 20, 60 and 90 °C [2]: larger hydrodynamic diameters at 60 °C compared to the ones at 20 or 90 °C; Temperature-responsive behavior in turbidity measurement [1, 10]: both LCST- and UCST-like behavior; Solubility at 90 °C ([1]; peptide 1 mM and 2.5 mM at 90 °C, phosphate buffer pH 7.4 with 1 M NaCl, images of measurement cell): insoluble; Aggregation behavior in CD sample [3]: apparent aggregation behavior was not observed; ThT fluorescence intensity upon heating (ThT fluorescence assay): sharp increase in fluorescence intensity around Tt
H-FPGVG-NH2 [F1, monomeric elastin-like pentapeptide Phe-Pro-Gly-Val-Gly amide] | – | – | – | Coacervation (LCST-like behavior) [4]: did not show coacervation
CC(C)[C@H](NC(=O)CNC(=O)[C@@H]1CCCN1C(=O)[C@H](Cc1ccccc1)NC(=O)CC[C@H](NC(=O)CC[C@H](NC(=O)CC[C@H](NC(=O)CC[C@H](N)C(=O)N[C@@H](Cc1ccccc1)C(=O)N1CCC[C@H]1C(=O)NCC(=O)N[C@H](C(=O)NCC(N)=O)C(C)C)C(=O)N[C@@H](Cc1ccccc1)C(=O)N1CCC[C@H]1C(=O)NCC(=O)N[C@H](C(=O)NCC(N)=O)C(C)C)C(=O)N[C@@H](Cc1ccccc1)C(=O)N1CCC[C@H]1C(=O)NCC(=O)N[C@H](C(=O)NCC(N)=O)C(C)C)C(=O)N[C@@H](Cc1ccccc1)C(=O)N1CCC[C@H]1C(=O)NCC(=O)N[C@H](C(=O)NCC(N)=O)C(C)C)C(=O)NCC(N)=O [[γ-E(F1)]4-F1] | – | – | 30.25 ± 0.23 | Tt for the LCST-like behavior [1, 8]: 46.52 ± 0.67 °C; Tt for the LCST-like behavior [1, 9]: 20.75 ± 0.47 °C
CC(C)[C@H](NC(=O)CNC(=O)[C@@H]1CCCN1C(=O)[C@H](Cc1ccccc1)NC(=O)CC[C@H](NC(=O)CC[C@H](NC(=O)CC[C@H](NC(=O)CC[C@H](NC(=O)CC[C@H](N)C(=O)N[C@@H](Cc1ccccc1)C(=O)N1CCC[C@H]1C(=O)NCC(=O)N[C@H](C(=O)NCC(N)=O)C(C)C)C(=O)N[C@@H](Cc1ccccc1)C(=O)N1CCC[C@H]1C(=O)NCC(=O)N[C@H](C(=O)NCC(N)=O)C(C)C)C(=O)N[C@@H](Cc1ccccc1)C(=O)N1CCC[C@H]1C(=O)NCC(=O)N[C@H](C(=O)NCC(N)=O)C(C)C)C(=O)N[C@@H](Cc1ccccc1)C(=O)N1CCC[C@H]1C(=O)NCC(=O)N[C@H](C(=O)NCC(N)=O)C(C)C)C(=O)N[C@@H](Cc1ccccc1)C(=O)N1CCC[C@H]1C(=O)NCC(=O)N[C@H](C(=O)NCC(N)=O)C(C)C)C(=O)NCC(N)=O [[γ-E(F1)]5-F1] | 61.87 ± 0.60 | 34.73 ± 0.52 | 17.38 ± 0.10 | Temperature-responsive behavior in turbidity measurement [1, 10]: both LCST- and UCST-like behavior; Aggregation behavior in CD sample [3]: apparent aggregation behavior was not observed
